According to PubChem BioAssay AID1329 (NMMLSC, 2008):
Activity calls are given as the source filed them. How the calls were made is not given here.

target: Induced myeloid leukemia cell differentiation protein Mcl-1 (Homo sapiens) (UniProt Q07820); assay: Mcl-1/Bim interaction regulators – biochemical, bead-based flow cytometry, multiplexed, human, dose response (AID 1329); settings: Bim peptide-Mcl-1 binding, MCF
Sequence (Q07820 whole entry, looked up): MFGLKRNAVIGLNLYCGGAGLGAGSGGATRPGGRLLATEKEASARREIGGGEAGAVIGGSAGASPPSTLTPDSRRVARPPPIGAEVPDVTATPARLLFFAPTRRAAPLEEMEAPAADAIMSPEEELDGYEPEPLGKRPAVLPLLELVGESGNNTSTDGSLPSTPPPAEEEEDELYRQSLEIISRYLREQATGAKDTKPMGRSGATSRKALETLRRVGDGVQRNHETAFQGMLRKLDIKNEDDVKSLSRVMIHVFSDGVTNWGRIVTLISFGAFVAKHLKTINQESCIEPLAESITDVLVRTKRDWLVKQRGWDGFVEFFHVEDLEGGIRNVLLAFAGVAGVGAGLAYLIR

| SMILES | percent span |
| --- | --- |
| NC(=O)c1c(N)sc2c1CCCCC2 | inactive |
| Cc1ccc(-c2n[nH]c(=S)n2-c2ccccc2)cc1 | inactive |
| CCOc1ccc(N2C(=O)C(Cl)=C(Nc3ccccc3O)C2=O)cc1 | inactive |
| CC(=O)N1CCN(C(=O)c2ccc(-n3c(C)ccc3C)cc2)CC1 | inactive |
| Cc1ccc(/C=C/C(=O)c2ccccc(=O)c2O)cc1C | inactive |
| CN=c1scc(-c2cccs2)n1/N=C/c1ccc(O)c(O)c1O | inactive |
| Clc1nssc1=Nc1ccccc1 | inactive |
| CCn1c(SCC(=O)Nc2ccc(C)cc2)nnc1-c1ccc(O)cc1 | inactive |
| O=C(NC1=C(Nc2ccc(F)cc2)C(=O)c2ccccc2C1=O)c1ccc(Cl)cc1 | inactive |
| Cc1ccc(S(=O)(=O)N2CCCCC2)cc1NC(=O)COC(=O)c1ccccc1F | inactive |
| CCOc1ccc(C2=Nn3c(nnc3-c3ccccn3)SC2)cc1 | inactive |
| Cc1cc(C)cc(NS(=O)(=O)c2ccc3c(c2)c(=O)n(C)c(=O)n3C)c1 | inactive |
| O=C(Nc1ccncc1)c1cc2ccccc2o1 | inactive |
| Cc1ccc(C)c(N2CCN(C(=S)Nc3ccc4nc(N5CCN(C)CC5)cc(C)c4c3)CC2)c1 | inactive |
| CC1(C(=O)N(CC(=O)NC2CCCC2)Cc2ccco2)CC(=O)N=C2C=CC=CN21 (centres undefined) | inactive |
| O=C(NCCO)c1ccc2nc(-c3ccco3)c(-c3ccco3)nc2c1 | inactive |
| C/C(=N\NC(=O)COc1ccc(C(C)(C)C)cc1)c1ccc2c(c1)OCCO2 | inactive |
| CCC(=O)OCCNc1cc(Sc2nccn2C)c2nonc2c1[N+](=O)[O-] | inactive |
| Cc1[nH]n(C(N)=S)c(=O)c1N=Nc1ccc(S(=O)(=O)N2CCCCCC2)cc1 | inactive |
| COc1ccc(CC(=O)Nc2ccc3nc(C)sc3c2)cc1OC | inactive |
| O=C(O)c1ccccc1NSc1ccccc1[N+](=O)[O-] | inactive |
| O=C(NCc1ccccn1)c1ccc2nc(-c3ccco3)c(-c3ccco3)nc2c1 | inactive |
| CC(C)(C)NC(=O)COc1ccc(CNc2ccc3[nH]c(=O)[nH]c3c2)cc1 | inactive |
| Cc1c(NC2=C(Cl)C(=O)N(c3ccccc3)C2=O)c(=O)n(-c2ccccc2)n1C | inactive |
| CCN(CC)c1ccc(-c2nn3c(-c4cccnc4)nnc3s2)cc1 | inactive |
| COc1ccc(N2C(=O)C(Cl)=C(Nc3ccccc3O)C2=O)cc1 | inactive |

| SMILES | percent span |
| --- | --- |
| Cc1ccc(Nc2nc(-c3ccccc3)c(CC(=O)O)s2)cc1 | inactive |
| CCOc1ccccc1NC(=O)CSc1ccc2nnc(-c3cccnc3)n2n1 | inactive |
| C/C(=C\c1ccco1)C1Nc2cccc3cccc(c23)N1 | inactive |
| CNC(=S)N/N=C/C1=CCC2CC1C2(C)C (centres undefined) | inactive |
| OC(COc1ccc2cc(Br)ccc2c1)CN1CCOCC1 (centres undefined) | inactive |
| CCC(=O)N(CC)C1=C(O)c2ccccc2C(=O)C1=O | inactive |
| COc1ccccc1-n1c(-c2ccc(Cl)cc2)c[nH]c1=S | inactive |
| C=CCn1c(C)cc(-c2csc(NC)n2)c1C | inactive |
| Cc1cc(-c2cc(-c3ccc(Cl)cc3)nc(N)c2C#N)co1 | inactive |
| COc1cccc(-n2nnnc2SCC(=O)Nc2cccc(NC(C)=O)c2)c1 | inactive |
| CCOC(=O)c1c(NC(=O)c2ccccc2N(C)S(=O)(=O)c2ccccc2)sc2c1CCCC2 | inactive |
| O=C(CNC(=O)c1ccc(S(=O)(=O)N2CCCC2)cc1)N/N=C/c1ccc(Cl)cc1Cl | inactive |
| Cc1ccc(C(NC(=O)C(C)C)c2cc([N+](=O)[O-])c3cccnc3c2O)cc1 (centres undefined) | inactive |
| COc1ccc(CN(CC(=O)NC2CCCC2)C(=O)CCC(=O)Nc2cc(C)on2)cc1 | inactive |
| COc1cc(OC)c([N+](=O)[O-])cc1/C=N/NC(=O)c1ccncc1 | inactive |
| O=C(CNC(=O)c1ccco1)NCC(=O)OCc1ccccc1Br | inactive |
| COC(=O)c1[nH]c2ccccc2c1NC(=O)c1ccccc1[N+](=O)[O-] | inactive |
| Cn1c(=O)[nH]c(=O)c2c1nc(N1CCOCC1)n2CCSc1nc2ccccc2[nH]1 | inactive |
| CC1=CC(=O)c2ccccc2C1=O | inactive |
| CC1(C)SC(=S)N(NC(=O)Nc2ccccc2)C1N(O)C(=O)Nc1cccc2ccccc12 (centres undefined) | inactive |
| CCc1cccc(NC(=O)COc2ccccc2)c1 | inactive |
| CS(=O)(=O)NN1C(=O)c2ccccc2NC1c1ccccc1 (centres undefined) | inactive |
| COc1ccc(NC(=O)c2cccs2)cc1 | inactive |
| C=CS(=O)(=O)c1sc(Cl)c(N2CCOCC2)c1[N+](=O)[O-] | inactive |
| COc1cc(NC(=S)NC(=O)c2cc(C)cc(C)c2)ccc1NC(=O)c1cccs1 | inactive |
| Cc1cc(C)c2nc3nc(C)c(C)cc3c(N)c2c1 | inactive |

| SMILES | percent span |
| --- | --- |
| CCOc1ccc(C(=O)Nc2nnc(NC(=S)Nc3ccccc3)s2)cc1 | inactive |
| Cc1cc(C(=O)NCCCN(C)C)c2ccccc2n1 | inactive |
| O=C1NCCN1C(=O)N(c1ccccc1)c1ccccc1 | inactive |
| COc1ccccc1OCc1ccc(C(=O)Nc2ccccc2F)cc1 | inactive |
| CCOC(=O)c1snc(-c2ccc(F)cc2)c1N | inactive |
| COC(=O)Cc1ccc(NC(=S)N2CCN(c3cccc(O)c3)CC2)cc1 | inactive |
| CC(/C=C/C(=O)c1ccc(C)cc1)=C\c1ccccc1 | inactive |
| COC(=O)c1ccc(-n2nnnc2SCC(=O)Nc2cc(OC)ccc2OC)cc1 | inactive |
| Cc1[nH]nc(SCC(=O)NCc2ccc(F)cc2)c1[N+](=O)[O-] | inactive |
| CC(C(=O)Nc1ccc([N+](=O)[O-])cc1)N1CCN(C/C=C/c2ccccc2)CC1 (centres undefined) | inactive |
| CCCc1nnc2n1N=C(c1ccc(-c3cc(Cl)ccc3Cl)o1)CS2 | inactive |
| CCOc1ccc2nc(SCC(=O)N3c4ccccc4Sc4ccccc43)c(C#N)cc2c1 | inactive |
| Fc1cccc(Nc2nc(-c3ccncc3)nc3ccccc23)c1 | inactive |
| CCCn1c(SCC(=O)Nc2ccccc2-c2ccccc2)nnc1-c1ccoc1C | inactive |
| Cc1sc2nc(C(C)C)nc(SCC(=O)N3c4ccccc4CC3C)c2c1C (centres undefined) | inactive |
| Cc1ccc(-n2nc(C)c(C(=O)O)n2)c(C)c1 | inactive |
| O=[N+]([O-])c1cccc(S(=O)(=O)NCC2CCCO2)c1 (centres undefined) | inactive |
| O=C1CCc2cc(S(=O)(=O)NCCCC(=O)N3CCN(Cc4ccc5c(c4)OCO5)CC3)ccc2N1 | inactive |
| C=CCn1c(SCC(=O)Nc2ccc3c(c2)OCO3)nnc1-c1cc(Br)ccc1O | inactive |
| CCN1CCN(c2cc(C)c3cc(NC(=S)N4CCCCC4)ccc3n2)CC1 | inactive |
| COC(=O)c1cc(OC)c(OC)cc1NC(=O)Nc1cccc(C(C)=O)c1 | inactive |
| Clc1ccc2c(N/N=C/c3ccc(Br)cc3)ccnc2c1 | inactive |
| CN1CCN(c2ccccc2N)CC1 | inactive |
| COc1ccc(C2=Nc3cccc4cccc(c34)N2)cc1 | inactive |
| COc1ccc(NC(=O)c2cc(-c3ccc(C)o3)nc3ccccc23)cc1OC | inactive |
| COc1ccc(C(=O)/C=C/c2cc(OC)c(O)c(OC)c2)c(F)c1 | inactive |

| SMILES | percent span |
| --- | --- |
| O=C(Oc1ccc(-c2cnc3ccccc3n2)cc1)c1cccc([N+](=O)[O-])c1 | inactive |
| Cc1ccc(Nc2nc(CSc3nnc(-c4cccnc4)n3-c3ccccc3C)cs2)cc1 | inactive |
| CCOC(=O)CCCNC(=O)c1cncc(O)c1 | inactive |
| CNc1ccc(Br)cc(C(=O)/C=C/c2ccc(OC)cc2)c1=O | inactive |
| O=C(O)c1ccc(NS(=O)(=O)c2ccc3c(c2)C(=O)c2ccccc2C3=O)cc1 | inactive |
| CCN1CCN(CC(=O)c2c[nH]c3ccc(C)cc23)CC1 | inactive |
| Cc1ccc(C(=O)N(CCCN(C)C)c2nc3ccc(Cl)cc3s2)cc1C | inactive |
| CN(C)C(Cc1ccccc1)C(=O)c1cccs1 (centres undefined) | inactive |
| Cc1ccc(-c2c3c([nH]c(=S)c2C#N)CCCC3)o1 | inactive |
| CC(C)C(=O)NC(c1ccccc1)c1cc([N+](=O)[O-])c2cccnc2c1O (centres undefined) | inactive |
| c1ccc(Nc2nc(-c3ccncc3)cs2)cc1 | inactive |
| CC1CCN(C2(O)C(=O)Nc3ccc(Br)cc32)CC1 (centres undefined) | inactive |
| O=C(C1=NN(c2ccccc2)C2C(=O)N(c3ccccc3)C(=O)C12)c1ccccc1 (centres undefined) | inactive |
| Cc1cc(Cl)c(S(=O)(=O)NCC2CCCO2)cc1OCC(N)=O (centres undefined) | inactive |
| CC(C)(C)c1nc(NCCN2CCOCC2)c2nnn(Cc3ccccc3Cl)c2n1 | inactive |
| COC(=O)Cc1cc(=O)[nH]c(Nc2nc3ccccc3o2)n1 | inactive |
| N/C(=N\N=C/c1ccc(Br)cc1)N/N=C\c1ccc(Br)cc1 | inactive |
| COc1ccccc1NC(=O)CSc1nnc(-c2ccco2)n1Cc1ccco1 | inactive |
| CCn1c(C)c(/C=N/Nc2nc3ccccc3s2)c2ccccc21 | inactive |
| CN1C(=O)/C(=C/c2ccc(-c3ccccc3[N+](=O)[O-])o2)SC1=Nc1ccc(Cl)c(C(=O)O)c1 | inactive |
| CC1=CC(=O)c2c(O)ccc(O)c2C1=O | inactive |
| O=C1C(Cl)=C(N2CCN(c3ccccc3[N+](=O)[O-])CC2)C(=O)c2ccccc21 | inactive |
| COc1ccc(CC(=O)Nc2ccc(C(=O)Nc3nccs3)cc2)cc1OC | inactive |
| COc1ccc(CC(=O)Nc2ccccc2Oc2ccccc2)cc1 | inactive |
| COc1ccc2cc(CN(CCc3ccccc3)Cc3nnnn3CC3CCCO3)c(=O)[nH]c2c1 (centres undefined) | inactive |
| COc1ccc(N2CCN(C(CNS(=O)(=O)c3ccc4c(c3)OCCO4)c3ccco3)CC2)cc1 (centres undefined) | inactive |
